Tests used:
[1] = Inhibition of TEL fused Lck-mediated proliferation of TEL-Lck transformed mouse BA/F3 cells after 48 hrs by bright-glo luciferase assay
[2] = Inhibition of TEL fused Src-mediated proliferation of TEL-Src transformed mouse BA/F3 cells after 48 hrs by bright-glo luciferase assay
[3] = Inhibition of TEL fused KDR-mediated proliferation of TEL-KDR transformed mouse BA/F3 cells after 48 hrs by bright-glo luciferase assay
[4] = Inhibition of TEL fused InsR-mediated proliferation of TEL-InsR transformed mouse BA/F3 cells after 48 hrs by bright-glo luciferase assay
[5] = Inhibition of TEL fused Lyn-mediated proliferation of TEL-Lyn transformed mouse BA/F3 cells after 48 hrs by bright-glo luciferase assay

In the case of Cc1cccc(Cl)c1Nc1nc2ccccc2n1-c1cc(N2CCOCC2)ncn1 [N-(2-chloro-6-methylphenyl)-1-(6-morpholinopyrimidin-4-yl)-1H-benzo[d]imidazol-2-amine], the IC50 [1] is reported as > 10000 nM.
In the case of CCN(CC)CCCCNc1cc(-n2c(Nc3c(C)cccc3Cl)nc3ccccc32)ncn1 [N-(2-chloro-6-methylphenyl)-1-(6-(4-(diethylamino)butylamino)pyrimidin-4-yl)-1H-benzo[d]imidazol-2-amine], the IC50 [1] is reported as 5040 nM.
Cc1cccc(Cl)c1Nc1nc2ccccc2n1-c1cc(Cl)ncn1 [N-(2-chloro-6-methylphenyl)-1-(6-chloropyrimidin-4-yl)-1H-benzo[d]imidazol-2-amine] gave an IC50 [1] of 5700 nM.
Work on Cc1cc(C)c(Nc2nc3ccccc3n2-c2cc(N)ncn2)c(C)c1 [1-(6-aminopyrimidin-4-yl)-N-mesityl-1H-benzo[d]imidazol-2-amine] yielded an IC50 [1] of 583 nM.
In the case of Cc1cccc(Cl)c1Nc1nc2ccccc2n1-c1cc(NN2CCOCC2)ncn1 [N-(2-chloro-6-methylphenyl)-1-(6-(morpholinoamino)pyrimidin-4-yl)-1H-benzo[d]imidazol-2-amine], the IC50 [1] is reported as > 10000 nM.
With Cc1nc(Nc2cc(-n3c(Nc4c(C)cccc4Cl)nc4ccccc43)ncn2)cc(N2CCN(CCO)CC2)n1 [2-(4-(6-(6-(2-(2-chloro-6-methylphenylamino)-1H-benzo[d]imidazol-1-yl)pyrimidin-4-ylamino)-2-methylpyrimidin-4-yl)piperazin-1-yl)ethanol] the IC50 [2] was 5 nM, the IC50 [3] was 356 nM and the IC50 [4] was 2340 nM. It also gave an IC50 [5] of 30 nM.
For Cc1cccc(Cl)c1Nc1nc2ccccc2n1-c1cc(Nc2ncnc(NCCN3CCOCC3)c2C)ncn1 [N4-(6-(2-(2-chloro-6-methylphenylamino)-1H-benzo[d]imidazol-1-yl)pyrimidin-4-yl)-5-methyl-N6-(2-morpholinoethyl)pyrimidine-4,6-diamine], the IC50 [1] was 359 nM.
For Cc1cccc(Cl)c1Nc1nc2ccccc2n1-c1cc(Nc2cc(CN3CCOCC3)ccn2)ncn1 [N-(2-chloro-6-methylphenyl)-1-(6-(4-(morpholinomethyl)pyridin-2-ylamino)pyrimidin-4-yl)-1H-benzo[d]imidazol-2-amine], the IC50 [1] was 17 nM.
Cc1cc(C)c(Nc2nc3ccccc3n2-c2cc(N)ncn2)c(Br)c1 [1-(6-aminopyrimidin-4-yl)-N-(2-bromo-4,6-dimethylphenyl)-1H-benzo[d]imidazol-2-amine] showed an IC50 [1] of 1170 nM.
Compound Cc1cccc(Cl)c1Nc1nc2ccccc2n1-c1cc(Nc2ccc(CCN3CCOCC3)cn2)ncn1 [N-(2-chloro-6-methylphenyl)-1-(6-(5-(2-morpholinoethyl)pyridin-2-ylamino)pyrimidin-4-yl)-1H-benzo[d]imidazol-2-amine] has an IC50 [2] of 147 nM, an IC50 [3] of 1010 nM and an IC50 [4] of 5160 nM. The IC50 [5] was 215 nM.
